Laboratory results: patent US20250388605A1, “HETEROBIFUNCTIONAL COMPOUNDS AND METHODS OF TREATING DISEASE” (Halda Therapeutics OpCo, Inc., priority 2022, published 2025)

tested on: T47D cells; assay: Cellular Growth Inhibition Assay for T47D Cells (CellTiter-Glo); format: cell-based, human; conditions: 72 hours
Description: Exemplary compounds were tested for ability to inhibit the proliferation of T47D cells. T47D cells are a commercially available human breast cancer cell line.
T47D cells were purchased from American Type Cell Culture (ATCC Cat #HTB-133) and then seeded on poly-D-lysine coated, black clear-bottom 384-well plates at 3000/well in 25 μL Dulbecco's Modified Eagle Medium (DMEM) supplemented with 10% w/w Fetal bovine serum (FBS), 0.2 units/mL recombinant human insulin (Gibco Cat #12585014), and 1% w/w Pen-Strep. Pen-Strep is a commercially available mixture of penicillin G and streptomycin, which is used in mammalian cell culture media to prevent bacterial contamination. Dulbecco's Modified Eagle Medium (DMEM) supplemented with 10% w/w fetal bovine serum (FBS), 0.2 units/mL recombinant human insulin, and 1% w/w Pen-Strep is herein referred to as Treatment Medium. Following seeding of cells in the plates, the plates were spun at 300×g for 30 seconds, then equilibrated to room temperature for 30 minutes, and then deposited in a humidified tissue culture incubator maintained at 37° C. with 5% CO2.
At 24 hours after seeding of the cells, dilutions of test compound were prepared in DMSO and dissolved in Treatment Medium, to achieve a final DMSO concentration of 0.5% w/w, thereby providing the Test Compound Solution. A 25 μL aliquot of the Test Compound Solution was added to cells in the well plates. An equal volume of a solution containing DMSO and Treatment Medium was used as a negative control. Following treatment of cells with Test Compound Solution or said equal volume of a solution containing DMSO and Treatment Medium, the plates were spun at 300×g for 30 seconds, and then left in an incubator for 72 hours.
At the end of the treatment duration, cell viability was quantified with CellTiter-Glo 2.0 reagent (Promega Cat #G9243). For this purpose, plates were equilibrated to room temperature for 30 minutes, and then 25 μL of CellTiter-Glo 2.0 reagent was added to cells in the plate wells. Plates were then agitated on a shaker for two minutes at 500 rpm and subsequently incubated at room temperature for 10 minutes. Following incubation, the plates were spun at 3000×g for 30 seconds, then sealed with an optical adhesive cover, and luminescence readings were measured with an EnVision Plate Reader (Perkin Elmer).
Data was normalized using zero luminescence for baseline. A four-parameter non-linear regression curve fit was applied to dose-response data in GraphPad Prism data analysis software to determine the half-maximal growth inhibitory concentration (GI50) for each test compound.

SMILES	GI50 [nM]
Cn1cc(-c2ccccc2Oc2ccc(N3CC(CC4CCN(c5ncc(C(=O)N[C@H]6C(C)(C)[C@H](Oc7ccc(C#N)c(Cl)c7)C6(C)C)cn5)CC4)C3)cc2)c2cc[nH]c2c1=O [Compound I-359]	> 3000
Cn1cc(-c2ccccc2Oc2ccc(N3CC(C4CCN(c5ncc(C(=O)N[C@H]6C(C)(C)[C@H](Oc7ccc(C#N)c(Cl)c7)C6(C)C)cn5)CC4)C3)cc2)c2cc[nH]c2c1=O [Compound I-360]	500 to 1500
Cn1cc(-c2ccccc2Oc2ccc(N3CC(CC4CCN(c5ccc(C(=O)N[C@H]6C(C)(C)[C@H](Oc7ccc(C#N)c(Cl)c7)C6(C)C)nc5)CC4)C3)cc2)c2cc[nH]c2c1=O [Compound I-364]	> 3000
Cn1cc(-c2ccccc2Oc2ccc(N3CC(CC4CCN(c5cnc(C(=O)N[C@H]6C(C)(C)[C@H](Oc7ccc(C#N)c(Cl)c7)C6(C)C)cn5)CC4)C3)cc2)c2cc[nH]c2c1=O [Compound I-361]	< 500
Cn1cc(-c2ccccc2Oc2ccc(N3CC(CC4CN(c5ncc(C(=O)N[C@H]6C(C)(C)[C@H](Oc7ccc(C#N)c(Cl)c7)C6(C)C)cn5)C4)C3)cc2)c2cc[nH]c2c1=O [Compound I-363]	< 500
Cn1cc(-c2cc(C(C)(C)O)ccc2Oc2ccc(N3CC4(C3)CN(c3cnc(C(=O)N[C@H]5C(C)(C)[C@H](Oc6ccc(C#N)c(Cl)c6)C5(C)C)cn3)C4)cc2)c2cc[nH]c2c1=O [Compound I-355]	< 500
Cn1cc(-c2ccccc2Oc2ccc(N3CC(C4CCN(c5cnc(C(=O)N[C@H]6C(C)(C)[C@H](Oc7ccc(C#N)c(Cl)c7)C6(C)C)cn5)CC4)C3)cc2)c2cc[nH]c2c1=O [Compound I-365]	< 500

Results, then the compound that gave them:

GI50 [nM]	SMILES
< 500	COc1cc(O[C@H]2C(C)(C)[C@H](NC(=O)c3cnc(N4CCC(CC5CN(c6ccc(Oc7ccc(C(C)(C)O)cc7-c7cn(C)c(=O)c8[nH]ccc78)cc6)C5)CC4)cn3)C2(C)C)ccc1C#N [Compound I-384]
< 500	Cn1cc(-c2cc(C(C)(C)O)ccc2Oc2ccc(N3CC(C4CCN(c5ncc(C(=O)N[C@H]6C(C)(C)[C@H](Oc7ccc(C#N)c(F)c7)C6(C)C)cn5)CC4)C3)cc2)c2cc[nH]c2c1=O [Compound I-390]
< 500	Cn1cc(-c2cc(C(C)(C)O)ccc2Oc2ccc(N3CC(C4CCN(c5ccc(C(=O)N[C@H]6C(C)(C)[C@H](Oc7ccc(C#N)c(Cl)c7)C6(C)C)cn5)CC4)C3)cc2)c2cc[nH]c2c1=O [Compound I-382]
500 to 1500	Cn1cc(-c2cc(C(C)(C)O)ccc2Oc2ccc(N3CC(C4CCN(c5cnc(C(=O)N[C@H]6C(C)(C)[C@H](Oc7ccc(C#N)c(Cl)c7)C6(C)C)cn5)CC4)C3)cc2)c2cc[nH]c2c1=O [Compound I-381]
< 500	COc1cc(O[C@H]2C(C)(C)[C@H](NC(=O)c3cnc(N4CCC(C5CN(c6ccc(Oc7ccc(C(C)(C)O)cc7-c7cn(C)c(=O)c8[nH]ccc78)cc6)C5)CC4)nc3)C2(C)C)ccc1C#N [Compound I-385]
< 500	Cn1cc(-c2cc(C(C)(C)O)ccc2Oc2ccc(N3CC(C4CCN(c5ccc(C(=O)N[C@H]6C(C)(C)[C@H](Oc7ccc(C#N)c(Cl)c7)C6(C)C)nc5)CC4)C3)cc2)c2cc[nH]c2c1=O [Compound I-388]

same assay, conditions: Homo sapiens, 72 hours

SMILES	GI50 [nM]
Cn1cc(-c2cc(C(C)(C)O)ccc2Oc2ccc(C#CC3CC4(C3)CN(c3ncc(C(=O)NC5C(C)(C)C(Oc6ccc(C#N)c(Cl)c6)C5(C)C)cn3)C4)cc2)c2cc[nH]c2c1=O (stereo not drawn) [Compound I-357, N-[3-(3-chloro-4-cyano-phenoxy)-2,2,4,4-tetramethyl-cyclobutyl]-2-[6-[2-[4-[4-(1-hydroxy-1-methyl-ethyl)-2-(6-methyl-7-oxo-1H-pyrrolo[2,3-c]pyridin-4-yl)phenoxy]phenyl]ethynyl]-2-azaspiro[3.3]heptan-2-yl]pyrimidine-5-carboxamide]	< 500
Cn1cc(-c2cc(C(C)(C)O)ccc2Oc2ccc(CC3CCN(c4ccc(C(=O)N[C@H]5C(C)(C)[C@H](Oc6ccc(C#N)c(Cl)c6)C5(C)C)nc4)CC3)cc2)c2cc[nH]c2c1=O [Compound I-368]	< 500
Cn1cc(-c2cc(C(C)(C)O)ccc2Oc2ccc(CC3CC4(CCN(c5ncc(C(=O)N[C@H]6C(C)(C)[C@H](Oc7ccc(C#N)c(Cl)c7)C6(C)C)cn5)CC4)C3)cc2)c2cc[nH]c2c1=O [Compound I-324]	< 500
Cn1cc(-c2ccccc2Oc2ccc(OCC3CCN(c4ncc(C(=O)NC5C(C)(C)C(Oc6ccc(C#N)c(Cl)c6)C5(C)C)cn4)CC3)cc2)c2cc[nH]c2c1=O (stereo not drawn) [Compound I-356, N-[3-(3-chloro-4-cyano-phenoxy)-2,2,4,4-tetramethyl-cyclobutyl]-2-[4-[[4-[2-(6-methyl-7-oxo-1H-pyrrolo[2,3-c]pyridin-4-yl)phenoxy]phenoxy]methyl]-1-piperidyl]pyrimidine-5-carboxamide]	< 500
Cn1cc(-c2ccccc2Oc2ccc(OC3CC4(C3)CC3(CCN(c5ncc(C(=O)N[C@H]6C(C)(C)[C@H](Oc7ccc(C#N)c(Cl)c7)C6(C)C)cn5)CC3)C4)cc2)c2cc[nH]c2c1=O [Compound I-358]	> 3000
Cn1cc(-c2cc(C(C)(C)O)ccc2Oc2ccc(C3CC(CC4CCN(c5ncc(C(=O)N[C@H]6C(C)(C)[C@H](Oc7ccc(C#N)c(Cl)c7)C6(C)C)cn5)CC4)C3)cc2)c2cc[nH]c2c1=O (stereo partly drawn) [Compound I-354]	< 500
Cn1cc(-c2cc(C(C)(C)O)ccc2Oc2ccc(OC3CC4(C3)CC3(CCN(c5cnc(C(=O)N[C@H]6C(C)(C)[C@H](Oc7ccc(C#N)c(Cl)c7)C6(C)C)cn5)CC3)C4)cc2)c2cc[nH]c2c1=O [Compound I-366]	> 3000

Further lines, results first:

GI50 [nM]	SMILES
< 500	Cn1cc(-c2cc(C(C)(C)O)ccc2Oc2ccc(N3CC(C[C@@H]4[C@H]5CN(c6ncc(C(=O)N[C@H]7C(C)(C)[C@H](Oc8ccc(C#N)c(Cl)c8)C7(C)C)cn6)C[C@@H]45)C3)cc2)c2cc[nH]c2c1=O [Compound I-372]
> 3000	Cn1cc(-c2cc(C(C)(C)O)ccc2Oc2ccc(CC3CC4(CCN(c5cnc(C(=O)N[C@H]6C(C)(C)[C@H](Oc7ccc(C#N)c(Cl)c7)C6(C)C)cn5)CC4)C3)cc2)c2cc[nH]c2c1=O [Compound I-375]
> 3000	Cn1cc(-c2cc(C(C)(C)O)ccc2Oc2ccccc2N2CC(CC3CCN(c4ncc(C(=O)NC5C(C)(C)C(Oc6ccc(C#N)c(Cl)c6)C5(C)C)cn4)CC3)C2)c2cc[nH]c2c1=O (stereo not drawn) [Compound I-387, N-[3-(3-chloro-4-cyano-phenoxy)-2,2,4,4-tetramethyl-cyclobutyl]-2-[4-[[1-[2-[4-(1-hydroxy-1-methyl-ethyl)-2-(6-methyl-7-oxo-1H-pyrrolo[2,3-c]pyridin-4-yl)phenoxy]phenyl]azetidin-3-yl]methyl]-1-piperidyl]pyrimidine-5-carboxamide]
500 to 1500	Cn1cc(-c2cc(C(C)(C)O)ccc2Oc2ccc(CC3CC4(CCN(c5ccc(C(=O)N[C@H]6C(C)(C)[C@H](Oc7ccc(C#N)c(Cl)c7)C6(C)C)cn5)CC4)C3)cc2)c2cc[nH]c2c1=O [Compound I-380]
< 500	Cn1cc(-c2cc(C(C)(C)O)ccc2Oc2ccc(CC3CCN(c4cnc(C(=O)N[C@H]5C(C)(C)[C@H](Oc6ccc(C#N)c(Cl)c6)C5(C)C)cn4)CC3)cc2)c2cc[nH]c2c1=O [Compound I-370]
< 500	Cn1cc(-c2cc(C(C)(C)O)ccc2Oc2ccc(N3CC(CC4CCN(c5cnc(C(=O)N[C@H]6C(C)(C)[C@H](Oc7ccc(C#N)c(Cl)c7)C6(C)C)cn5)CC4)C3)cc2Cl)c2cc[nH]c2c1=O [Compound I-393]
> 3000	Cn1cc(-c2cc(C(C)(C)O)ccc2Oc2ccccc2)c2cc(C(=O)NC3CC(CC4CCN(c5ccc(C(=O)NC6C(C)(C)C(Oc7ccc(C#N)c(Cl)c7)C6(C)C)nc5)CC4)C3)[nH]c2c1=O (stereo not drawn) [Compound I-377, N-[3-[[1-[6-[[3-(3-chloro-4-cyano-phenoxy)-2,2,4,4-tetramethyl-cyclobutyl]carbamoyl]-3-pyridyl]-4-piperidyl]methyl]cyclobutyl]-4-[5-(1-hydroxy-1-methyl-ethyl)-2-phenoxy-phenyl]-6-methyl-7-oxo-1H-pyrrolo[2,3-c]pyridine-2-carboxamide]
1500 to 3000	Cn1cc(-c2cc(C(C)(C)O)ccc2Oc2ccc(CC3CC4(CCN(c5ccc(C(=O)N[C@H]6C(C)(C)[C@H](Oc7ccc(C#N)c(Cl)c7)C6(C)C)nc5)CC4)C3)cc2)c2cc[nH]c2c1=O [Compound I-379]
< 500	Cn1cc(-c2ccccc2Oc2ccc(CC3CCN(c4cnc(C(=O)N[C@H]5C(C)(C)[C@H](Oc6ccc(C#N)c(Cl)c6)C5(C)C)cn4)CC3)cc2)c2cc[nH]c2c1=O [Compound I-371]
< 500	Cn1cc(-c2cc(C(C)(C)O)ccc2Oc2ccc(CC3CCN(c4ccc(C(=O)N[C@H]5C(C)(C)[C@H](Oc6ccc(C#N)c(Cl)c6)C5(C)C)cn4)CC3)cc2)c2cc[nH]c2c1=O [Compound I-369]
